Data published in patent US9115092B2, “Substituted quinazoline and pyrido-pyrimidine derivatives” (Asana Biosciences, LLC, priority 2010, dated 2015).

Experiments:
mTOR kinase = molecular target: T1, mTOR kinase (Homo sapiens, UniProt P42345); test: mTOR kinase TR-FRET assay; assay type: biochemical; details: read-out: mTO R
T1 construct: purchased Millipore, USA
Experimental: Compound inhibition for mTOR kinase was determined in a homogeneous TR-FRET assay using the Lance® ULight-p70 S6K (Thr 389) peptide (obtained from Perkin-Elmer). The ULight™-labeled synthetic peptide contains the amino acid residues surrounding Thr389 of human p70 S6K. The ULight-p70 S6K peptide is phosphorylated at Thr389 by mTOR. Phosphorylation motif: LGFTYVAP as substrate.
The compound dilution was carried out in 100% DMSO followed by a buffer dilution. The reaction buffer was HEPES (50 mM pH 7.5), EGTA (1 mM), MnCl2 (3 mM). Test compounds at various concentrations were pre-incubated with mTOR (Millipore, USA; 5 ng) for 60 min, and then the Lance® ULight-p70 S6K (Thr 389) peptide (50 nM) was added along with ATP (20 μM). After incubating the reaction mixture for 60 min at room temperature, the kinase reaction was terminated by the addition of EDTA (10 mM) followed by the addition of detection mix, i.e., 1 nM Eu-labeled anti-phospho-substrate antibody (Perkin Elmer, USA). The fluorescence emission at […] was measured upon excitation at 340 nm. IC50 values were subsequently determined using a sigmoidal dose-response curve (variable slope) in GraphPad Prism® 5 software.
Compounds of formula (I) caused inhibition of mTOR kinase activity as determined by this assay.

[1] = molecular target: T2, PI3Kα (wild-type), P110/P85α (Homo sapiens, UniProt P42336); test: PI3 Kinase TR-FRET assay, PI3Kα (wild-type); assay type: biochemical
T2 construct: made in house; host or cells: SF9 insect cells
T2 sequence (P42336 whole entry): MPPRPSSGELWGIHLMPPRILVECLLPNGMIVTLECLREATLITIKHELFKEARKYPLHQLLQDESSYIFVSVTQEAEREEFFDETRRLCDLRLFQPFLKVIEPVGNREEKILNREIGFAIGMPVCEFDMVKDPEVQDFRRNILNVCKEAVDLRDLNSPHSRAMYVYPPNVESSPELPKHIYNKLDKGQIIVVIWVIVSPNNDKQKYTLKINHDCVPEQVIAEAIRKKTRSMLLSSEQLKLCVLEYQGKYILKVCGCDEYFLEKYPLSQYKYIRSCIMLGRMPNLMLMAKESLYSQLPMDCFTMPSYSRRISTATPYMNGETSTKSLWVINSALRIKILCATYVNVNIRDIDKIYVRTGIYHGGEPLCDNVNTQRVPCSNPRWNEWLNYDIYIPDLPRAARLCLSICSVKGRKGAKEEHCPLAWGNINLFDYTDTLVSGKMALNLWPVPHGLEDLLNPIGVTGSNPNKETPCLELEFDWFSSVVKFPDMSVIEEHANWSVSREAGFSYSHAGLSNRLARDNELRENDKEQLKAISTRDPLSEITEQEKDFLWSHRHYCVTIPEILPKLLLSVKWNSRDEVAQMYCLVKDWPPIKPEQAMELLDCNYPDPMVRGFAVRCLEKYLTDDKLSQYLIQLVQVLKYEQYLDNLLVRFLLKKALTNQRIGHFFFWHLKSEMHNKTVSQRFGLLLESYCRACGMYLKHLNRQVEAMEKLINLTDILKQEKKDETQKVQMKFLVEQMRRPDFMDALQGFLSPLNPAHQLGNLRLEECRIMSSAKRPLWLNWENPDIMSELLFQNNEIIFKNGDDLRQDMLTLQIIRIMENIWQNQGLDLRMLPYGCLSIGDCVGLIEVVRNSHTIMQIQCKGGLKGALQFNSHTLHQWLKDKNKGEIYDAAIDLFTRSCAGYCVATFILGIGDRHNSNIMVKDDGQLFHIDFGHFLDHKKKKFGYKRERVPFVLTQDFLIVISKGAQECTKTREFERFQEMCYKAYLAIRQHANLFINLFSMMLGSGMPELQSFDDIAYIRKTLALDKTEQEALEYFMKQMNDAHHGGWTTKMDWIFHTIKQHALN
T2 sequence (P27986 whole entry partner): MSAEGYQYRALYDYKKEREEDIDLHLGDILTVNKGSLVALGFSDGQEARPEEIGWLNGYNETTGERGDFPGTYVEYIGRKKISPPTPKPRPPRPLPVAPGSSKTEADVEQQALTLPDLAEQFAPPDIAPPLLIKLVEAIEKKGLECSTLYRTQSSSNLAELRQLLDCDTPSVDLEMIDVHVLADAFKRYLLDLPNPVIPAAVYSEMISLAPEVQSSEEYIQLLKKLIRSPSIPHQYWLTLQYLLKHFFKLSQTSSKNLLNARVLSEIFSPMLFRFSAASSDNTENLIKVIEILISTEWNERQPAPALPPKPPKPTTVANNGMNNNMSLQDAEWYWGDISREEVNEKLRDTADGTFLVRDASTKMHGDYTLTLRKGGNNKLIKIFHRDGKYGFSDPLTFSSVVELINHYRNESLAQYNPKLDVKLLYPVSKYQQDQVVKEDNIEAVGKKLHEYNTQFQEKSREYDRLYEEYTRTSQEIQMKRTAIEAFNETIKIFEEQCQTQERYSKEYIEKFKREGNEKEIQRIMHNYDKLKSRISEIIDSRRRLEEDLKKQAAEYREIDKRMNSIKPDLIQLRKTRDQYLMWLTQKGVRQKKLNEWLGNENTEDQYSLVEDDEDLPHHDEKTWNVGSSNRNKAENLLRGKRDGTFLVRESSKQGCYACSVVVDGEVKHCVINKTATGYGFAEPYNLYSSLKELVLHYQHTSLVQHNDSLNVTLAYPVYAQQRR
Experimental: The ability of compounds of the invention to inhibit PI3K activity was determined in a homogeneous TR-FRET assay using a PI3K assay kit (Millipore, USA; cat #33-016) according to manufacturer's instructions. PI3-Kinases (isoforms α, β, γ and δ) catalyze the phosphorylation of phosphatidylinositol, PIP2 to PIP3 in the presence of ATP and Mg^2+. The PIP3 product is detected by displacement of biotin-PIP3 from an energy transfer complex consisting of Europium labeled anti-GST monoclonal antibody, a GST-tagged PH domain, biotinylated PIP3 and Streptavidin-APC. Excitation of Europium in the complex results in an energy transfer to the APC and a fluorescence emission at 665 nm. The PIP3 product displaces biotin-PIP3 from the complex resulting in a loss of energy transfer and thus a decrease in signal.
To test for the ability of compounds to inhibit the activity of PI3Kα (wild-type), exemplary compounds of formula (I) were dissolved in DMSO and directly distributed into 384-well plates at a volume of 0.5 μL. 14.5 μL of P110/P85α/PIP2 mixture in buffer (obtained from the Millipore kit) containing MgCl2 (40 mM) and DTT (5 mM) was added to compound wells and incubated for 60 min at room temperature. P110/P85α was expressed in SF9 insect cells and purified nickel column extraction. Five ng of wild-type P110/P85α was used in the assay. The kinase reaction was started by the addition of ATP. The assay concentrations of both PIP2 and ATP were 10 μM. The reaction mixture was incubated for 30 min at room temperature and was terminated by the addition of stop mix and detection mix. Fluorescence was measured at 615 and 665 nm upon excitation at 340 nm in a Victor™ V5 fluorometer (Perkin Elmer, USA). The fluorescence emission ratio at 665 to 615 nm, proportional to the kinase activity, was plotted against the compound concentration to generate dose-response curves and IC50 values were determined using GraphPad Prism® 5 software.

SMILES | IC50 (mTOR kinase) [nM] | IC50 [1] [nM]
CN1CCN(C(=O)c2ccc(-c3ccc4c(N5CCOCC5)nc(-c5ccc(NC(=O)Nc6ccc(C(=O)N(C)C)cc6)cc5)nc4c3)o2)CC1 [Example 11, N,N-dimethyl-4-(3-(4-(7-(5-(4-methylpiperazine-1-carbonyl)furan-2-yl)-4-morpholino-quinazolin-2-yl)phenyl)ureido)-benzamide] | < 50 | < 50
Cc1ncccc1-c1ccc2c(N3CCOCC3)nc(-c3ccc(NC(=O)Nc4ccc(C(=O)N(C)C)cc4F)cc3)nc2c1 [Example 167, 3-fluoro-N,N-dimethyl-4-(3-(4-(7-(2-methylpyridin-3-yl)-4-morpholino-quinazolin-2-yl)phenyl)ureido)-benzamide] | < 50 | < 50
CN(C)C(=O)c1ccc(NC(=O)Nc2ccc(-c3nc(N4CCOCC4)c4ncc(-c5cnn(C)c5)cc4n3)c(F)c2F)cc1 [Example 14, 4-(3-(2,3-difluoro-4-(7-(1-methyl-1H-pyrazol-4-yl)-4-morpholino-pyrido[3,2-d]pyrimidin-2-yl)phenyl)ureido)-N,N-dimethyl-benzamide] | < 50 | < 50
CN(C)C(=O)c1ccc(NC(=O)Nc2ccc(-c3nc(N4CCOCC4)c4cc(F)c(-c5cccnc5)cc4n3)cc2)c(F)c1 [Example 173, 3-fluoro-4-(3-(4-(6-fluoro-4-morpholino-7-(pyridin-3-yl)quinazolin-2-yl)phenyl)ureido)-N,N-dimethyl-benzamide] | < 50 | < 50
CN(C)C(=O)c1ccc(NC(=O)Nc2ccc(-c3nc(N4CCOCC4)c4ccc(-c5ccco5)cc4n3)cc2F)cc1 [Example 114, 4-(3-(2-fluoro-4-(7-(furan-2-yl)-4-morpholino-quinazolin-2-yl)phenyl)ureido)-N,N-dimethyl-benzamide] | 50 to 200 | 50 to 200
CN(C)C(=O)c1ccc(NC(=O)Nc2ccc(-c3nc(N4CCOCC4)c4ccc(-c5ccccn5)cc4n3)cc2)c(F)c1 [Example 168, 3-fluoro-N,N-dimethyl-4-(3-(4-(4-morpholino-7-(pyridin-2-yl)quinazolin-2-yl)phenyl)ureido)-benzamide] | < 50 | < 50
CN(C)C(=O)c1ccc(NC(=O)Nc2ccc(-c3nc(N4CCOCC4)c4cc(F)c(-c5cccnc5)cc4n3)cc2F)cc1 [Example 109, 4-(3-(2-fluoro-4-(6-fluoro-4-morpholino-7-(pyridin-3-yl)quinazolin-2-yl)phenyl)ureido)-N,N-dimethyl-benzamide] | 50 to 200 | 50 to 200
COc1ccc(-c2ccc3c(N4CCOCC4)nc(-c4ccc(NC(=O)Nc5ccc(C(=O)N(C)C)cc5)c(F)c4)nc3c2)cn1 [Example 151, 4-(3-(2-fluoro-4-(7-(6-methoxypyridin-3-yl)-4-morpholino-quinazolin-2-yl)phenyl)ureido)-N,N-dimethyl-benzamide] | 50 to 200 | 50 to 200
CC(O)c1ccc(-c2cnc3c(N4CCOCC4)nc(-c4ccc(NC(=O)Nc5ccc(C(=O)N(C)C)cc5)c(F)c4)nc3c2)o1 (stereo not drawn) [Example 15, 4-(3-(2-fluoro-4-(7-(5-(1-hydroxyethyl)furan-2-yl)-4-morpholino-pyrido[3,2-d]pyrimidin-2-yl)phenyl)ureido)-N,N-dimethyl-benzamide] | < 50 | < 50
CN(C)C(=O)c1ccc(NC(=O)Nc2ccc(-c3nc(N4CCOCC4)c4ncc(-c5cncnc5)cc4n3)cc2)c(F)c1 [Example 154, 3-fluoro-N,N-dimethyl-4-(3-(4-(4-morpholino-7-(pyrimidin-5-yl)pyrido[3,2-d]pyrimidin-2-yl)phenyl)ureido)-benzamide] | < 50 | < 50
CN(C)C(=O)c1ccc(NC(=O)Nc2ccc(-c3nc(N4CCOCC4)c4ccc(-c5cc6ccccc6o5)cc4n3)cc2)cc1 [Example 64, 4-{3-[4-(7-benzofuran-2-yl-4-morpholin-4-yl-quinazolin-2-yl)-phenyl]-ureido}-N,N-dimethyl-benzamide] | 201 to 10000 | 201 to 10000
CC1CN(c2nc(-c3ccc(NC(=O)Nc4ccc(C(=O)N(C)C)cc4)cc3)nc3cc(-c4cnn(C)c4)cnc23)CC(C)O1 (stereo not drawn) [Example 125, 4-(3-(4-(4-(2,6-dimethylmorpholino)-7-(1-methyl-1H-pyrazol-4-yl)pyrido[3,2-d]pyrimidin-2-yl)phenyl)ureido)-N,N-dimethyl-benzamide] | 50 to 200 | 201 to 10000
Cc1ccc(-c2ccc3c(N4CCOCC4)nc(-c4ccc(NC(=O)Nc5ccc(C(=O)N(C)C)nc5)c(F)c4)nc3c2)o1 [Example 122, 5-(3-(2-fluoro-4-(7-(5-methylfuran-2-yl)-4-morpholino-quinazolin-2-yl)phenyl)ureido)-N,N-dimethylpicolinamide] | 50 to 200 | 50 to 200

Second part, the compound after the results:

IC50 (mTOR kinase) [nM] | IC50 [1] [nM] | SMILES
50 to 200 | < 50 | CN(C)C(=O)c1ccc(NC(=O)Nc2ccc(-c3nc(N4CCOCC4)c4ncc(-c5ccc(CO)o5)cc4n3)cc2F)cc1 [Example 218, 4-(3-(2-fluoro-4-(7-(5-(hydroxymethyl)furan-2-yl)-4-morpholino-pyrido[3,2-d]pyrimidin-2-yl)phenyl)ureido)-N,N-dimethyl-benzamide]
50 to 200 | 50 to 200 | Cc1noc(C)c1-c1ccc2c(N3CCOCC3)nc(-c3ccc(NC(=O)Nc4ccc(C(=O)N5CCC(N(C)C)C5)cc4)c(F)c3)nc2c1 (stereo in doubt) [Example 221, (S)-1-(4-(3-(dimethylamino)pyrrolidine-1-carbonyl)phenyl)-3-(4-(7-(3,5-dimethylisoxazol-4-yl)-4-morpholino-quinazolin-2-yl)-2-fluorophenyl)urea]
< 50 | < 50 | CN(C)C(=O)c1ccc(NC(=O)Nc2ccc(-c3nc(N4CCOCC4)c4ncc(-c5cccnc5F)cc4n3)cc2)cc1F [Example 248, 2-fluoro-4-(3-(4-(7-(2-fluoropyridin-3-yl)-4-morpholino-pyrido[3,2-d]pyrimidin-2-yl)phenyl)ureido)-N,N-dimethyl-benzamide]
< 50 | < 50 | CC(=O)Nc1ccc(NC(=O)Nc2ccc(-c3nc(N4CCOCC4)c4ncc(-c5cnn(C)c5)cc4n3)cc2)cc1 [Example 294, N-(4-(3-(4-(7-(1-methyl-1H-pyrazol-4-yl)-4-morpholinopyrido[3,2-d]pyrimidin-2-yl)phenyl)ureido)phenyl) acetamide]
< 50 | < 50 | Cc1nn(C)c(C)c1-c1ccc2c(N3CCOCC3)nc(-c3ccc(NC(=O)Nc4ccc(C(=O)N(C)C)cc4)cc3F)nc2c1 [Example 269, 4-(3-(3-fluoro-4-(4-morpholino-7-(1,3,5-trimethyl-1H-pyrazol-4-yl)quinazolin-2-yl)phenyl)ureido)-N,N-dimethyl-benzamide]
< 50 | 50 to 200 | CN(C)C(=O)c1ccc(NC(=O)Nc2ccc(-c3nc(N4CCOCC4)c4ccc(-c5ccc(N)nc5)cc4n3)cc2)c(F)c1 [Example 178, 4-(3-(4-(7-(6-aminopyridin-3-yl)-4-morpholino-quinazolin-2-yl)phenyl)ureido)-3-fluoro-N,N-dimethyl-benzamide]
50 to 200 | 50 to 200 | COc1ncccc1-c1ccc2c(N3CCOCC3)nc(-c3ccc(NC(=O)Nc4ccc(C(=O)N(C)C)cc4)cc3F)nc2c1 [Example 270, 4-(3-(3-fluoro-4-(7-(2-methoxypyridin-3-yl)-4-morpholino-quinazolin-2-yl)phenyl)ureido)-N,N-dimethyl-benzamide]
201 to 10000 | 201 to 10000 | Cc1ccc(-c2ccc3c(N4CCOCC4)nc(-c4ccc(NC(=O)Nc5ccc(C(=O)N(C)C)cc5)c(F)c4F)nc3c2)o1 [Example 281, 4-(3-(2,3-difluoro-4-(7-(5-methylfuran-2-yl)-4-morpholino-quinazolin-2-yl)phenyl)ureido)-N,N-dimethyl-benzamide]
